Measured values published in US7317040B2, “Nitric oxide synthase inhibitor phosphate salt” (SmithKline Beecham Corporation, priority 2000, dated 2008).

Test: Hygroscopicity: % weight change (w/w) against target relative humidity at 25 degrees C (moisture sorption isotherm)
Type: physicochemical
Experimental: The hygroscopicities of three samples of the compound of formula (I) monohydrate prepared in accordance with the above method were tested by measuring their % weight change (w/w) over a target relative humidity band of 0 to 90% at 25 degrees C.
To make these measurements, the following instruments and parameters were used: • Hiden IGASORP, Serial: IGA SA-040; • Hiden Intelligent Analyser, Model: HAS-022-120E, Serial: HALIGA-0042; • Flow=495 ml/min
The hydroscopicity of a sample of the compound of formula (I) trihydrate prepared in accordance with the above method was tested by measuring % weight change (w/w) over a target relative humidity band of 0 to 90% at 25° C.
The hygroscopicity of a sample of the dihydrochloride salt prepared in accordance with the above method was tested by measuring its % weight change (w/w) over a target relative humidity band of 30 to 80% at 25 degrees C.

| SMILES | uptake of atmospheric moisture (above 50% relative humidity, FIG. 4) | mass change (at 55% relative humidity) | mass change (at 60% relative humidity) | mass change (at 65% relative humidity) | mass change (over a relative humidity range of 30-75%) | uptake of atmospheric moisture (below a relative humidity of 70%, three samples, FIGS. 1 to 3) |
| --- | --- | --- | --- | --- | --- | --- |
| CC(=N)NCCSCC[C@H](N)C(=O)O.Cl [dihydrochloride salt, (2S)-2-amino4-{[2-(ethanimidoylamino)ethyl]thio}butanoic acid, compound with hydrochloric acid] | rapid uptake of atmospheric moisture | about 11% | about 24% | about 32% | about 47% |  |
| CC(=N)NCCSCC[C@H](N)C(=O)O.O.O=P(O)(O)O [compound of formula (I) monohydrate, (2S)-2-amino-4-{[2-(ethanimidoylamino)ethyl]thio}butanoic acid, compound with phosphoric acid, monohydrate] |  |  |  |  |  | no significant uptake of atmospheric moisture |
